Test results taken from PubChem BioAssay AID1963845 (Molecular Pharmacology Branch, DTP, NCI, 2024).
Values joined by “and” are separate entries in the source; they are usually repeats but may differ in a detail not shown here. Equal values may be shown once.

Test system: 429239-143-T-J1-PDC complex spheroid viability
Assay: Anticancer human tumor 429239-143-T-J1-PDC patient-derived small cell lung carcinoma cell line growth inhibition [POLQ]
Conditions: for viability, T/C: stronger effect = lower value; for IC50: curve of compound
Method: Multicellular complex tumor spheroid response to Polymerase (POL) inhibitors (novobiocin, ART-558, RP6685) in combination with a variety of drugs and investigational agents in selected tumor cell lines
The POL inhibitors (novobiocin, ART-558, and RP6685) were evaluated both individually and in combination with standard of care and investigational anticancer small molecules within a complex spheroid model of solid tumors. . Complex spheroids include a stromal component modeled by human endothelial cells (HUVEC) and fibroblasts modeled by human mesenchymal stem cells (MSCs). The concentration ranges selected for each drug and investigational agent were based upon clinically achievable concentrations if the clinical Cmax of the agent was known.
Compounds. The drugs and investigational agents: novobiocin (NSC847541), ART-558 (NSC835418), RP-6685 (NSC848927), peposertib (NSC802822), ceralasertib (NSC780249), elimusertib (NSC800525), camonsertib (NSC841442), AZD-1390 (NSC803789), olaparib (NSC753686), talazoparib (NSC767125), rucaparib (NSC756644), sotorasib (NSC818433), MRTX-1133 (NSC836407), SN-38 (NSC673596), topotecan (NSC609699), epotoside (NSC141540), doxorubicin (NSC123127), gemcitabine (NSC613327), 5-fluorouracil (NSC19893), paclitaxel (NSC125973), vemurafenib (NSC761431), MSA-2 (NSC828583), SN-011 (NSC837082), adavosertib (NSC754352), prexasertib (NSC758257), carboplatin (NSC241240) and oxaliplatin (NSC266046), were obtained from the National Cancer Institute (NCI) Developmental Therapeutics Program Chemical Repository (21). The FDA-approved anticancer drug set is available from the Developmental Therapeutics Program at https://dtp.cancer.gov/organization/dscb/obtaining/. […] The stock solutions were prepared in dimethyl sulfoxide (DMSO, Sigma-Aldrich, St. Louis, MO, cat. D2650), except for the platinum compounds which were prepared in saline (Quality Biological, Gaithersburg, MD, cat. 114-055-101), at 800-fold the tested concentration and stored at -70 degrees C prior to their use. All drugs and investigational agents were tested over a range starting from a high concentration at or near the clinical Cmax and decreasing in half-log increments. If the clinical Cmax for an agent had not been determined, the highest concentration tested was 10 microM, except for SN-38, which was tested at a high concentration of 1 microM.
Cell Culture. All cells were maintained in an incubator at 37 degrees C and 5% CO2 with 95% humidity. The PDC lines were cultured according to standard operating procedures established by the NCI PDMR (https://pdmr.cancer.gov). Table 3 of the manuscript, lists the cell lines along with the number of the three cell types plated to form the mct-spheroids and media for tumor cell growth. After thawing, all PDC lines, except 997537-175-T-J1-PDC and 415267-285-R-J2-PDC, were cultured in Matrigel-coated flasks prepared with a working solution of 1X Ham's F-12 nutrient mix, without supplementation (Thermo Fisher Scientific, cat. 11765054), 100 U/mL penicillin-streptomycin (Thermo Fisher Scientific, cat. 15140122), and 2.5% Matrigel (Corning Inc., Corning, NY, cat. 354248) for the first three passages. The two PDC lines 997537-175-T-J1-PDC and 415267-285-R-J2-PDC were cultured on uncoated flasks. The 857933-349-R-J2-PDC line was cultured in 6C/Colon 1B media containing advanced DMEM/F-12 (Thermo Fisher Scientific, cat. 12634028), 10 mM HEPES (Thermo Fisher Scientific, cat. 15630080), 1X GlutaMAX supplement (Thermo Fisher Scientific, cat. 35050061), 0.1 mg/mL primocin (InvivoGen, San Diego, CA, cat. ant-pm-2), 10% defined fetal bovine serum, heat inactivated (HyClone Laboratories Inc., Logan, UT, cat. SH30070.03HI), 50% L-WRN conditioned media (ATCC, cat. CRL-3276), 1.25 mM N-Acetyl-L-cysteine (Sigma-Aldrich, cat. A9165), 10 mM nicotinamide (Sigma-Aldrich, cat. N0636), 1X B-27 supplement (Thermo Fisher Scientific, cat. 17504044), 1X N-2 supplement (Thermo Fisher Scientific, cat. […]
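Also: luminescence signal used as surrogate measure of viable cells; spheroids exposed to compounds for seven days before readout.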
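For viability, T/C in this document: 100% = DMSO vehicle control viability as luminescence relative to vehicle.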

C#Cc1c(F)ccc2cc(O)cc(-c3ncc4c(N5CC6CCC(C5)N6)nc(OCC56CCCN5CC(F)C6)nc4c3F)c12 (stereo unspecified)
viability, T/C (compound 0.0316 µM): 92.4% and 94.3% and 101%
viability, T/C (compound 0.1 µM): 91.3% and 103% and 102%
viability, T/C (compound 0.316 µM): 114% and 102% and 96%
viability, T/C (compound 1 µM): 99% and 112% and 102%
viability, T/C (compound 3.16 µM): 102% and 97.4% and 98.6%
viability, T/C (compound 10 µM): 84.1% and 91.3% and 103%
IC50: > 10000 nM

C=CC(=O)N1CCN(c2nc(=O)n(-c3c(C)ccnc3C(C)C)c3nc(-c4c(O)cccc4F)c(F)cc23)C(C)C1 (stereo unspecified)
viability, T/C (compound 0.0316 µM): 96.4% and 97.7% and 104%
viability, T/C (compound 0.1 µM): 100% and 103% and 90.4%
viability, T/C (compound 0.316 µM): 98.7% and 103% and 101%
viability, T/C (compound 1 µM): 105% and 101% and 102%
viability, T/C (compound 3.16 µM): 114% and 103% and 113%
viability, T/C (compound 10 µM): 112% and 102% and 108%
IC50: > 10000 nM

C=CCn1c(=O)c2cnc(Nc3ccc(N4CCN(C)CC4)cc3)nc2n1-c1cccc(C(C)(C)O)n1
viability, T/C (compound 0.00316 µM): 99.5% and 101% and 95.1%
viability, T/C (compound 0.01 µM): 103% and 107% and 104%
viability, T/C (compound 0.0316 µM): 89.4% and 120% and 103%
viability, T/C (compound 0.1 µM): 82.4% and 97.7% and 98.2%
viability, T/C (compound 0.316 µM): 91.7% and 94% and 88.9%
viability, T/C (compound 1 µM): 17.4% and 20% and 18.9%
IC50: 603 nM and 621 nM and 600 nM

CC(=O)O[C@H]1C(=O)[C@@]2(C)[C@H]([C@H](OC(=O)c3ccccc3)[C@]3(O)C[C@H](OC(=O)[C@H](O)[C@@H](NC(=O)c4ccccc4)c4ccccc4)C(C)=C1C3(C)C)[C@]1(OC(C)=O)CO[C@@H]1C[C@@H]2O
viability, T/C (compound 0.00949 µM): 62.4% and 68.4% and 14%
viability, T/C (compound 0.03 µM): 18.6% and 19.8% and 13.2%
viability, T/C (compound 0.0949 µM): 14.8% and 17.6% and 11.4%
viability, T/C (compound 0.3 µM): 19.5% and 16.1% and 12.9%
viability, T/C (compound 0.949 µM): 19.7% and 25.1% and 11.1%
viability, T/C (compound 3 µM): 29.5% and 28.1% and 14%
IC50: 13.4 nM and 14.9 nM and < 9.49 nM

CC(C)n1c(=O)n(C)c2cnc3cc(F)c(-c4ccc(OCCCN5CCCCC5)nc4)cc3c21
viability, T/C (compound 0.0316 µM): 99.4% and 102% and 100%
viability, T/C (compound 0.1 µM): 94.7% and 101% (2×)
viability, T/C (compound 0.316 µM): 102% and 94.4% and 86.6%
viability, T/C (compound 1 µM): 89.1% and 102% and 95.7%
viability, T/C (compound 3.16 µM): 91.2% and 99.8% and 90.1%
viability, T/C (compound 10 µM): 60.3% and 99.5% and 74.6%
IC50: > 10000 nM

CC1COCCN1c1cc(-c2ccnn2C)c2ccnc(-c3ccn[nH]3)c2n1 (stereo unspecified)
viability, T/C (compound 0.0316 µM): 81.5% and 81.3% and 92.4%
viability, T/C (compound 0.1 µM): 50% and 45.1% and 76.5%
viability, T/C (compound 0.316 µM): 27.3% and 28.6% and 65.2%
viability, T/C (compound 1 µM): 13.1% and 16% and 35.1%
viability, T/C (compound 3.16 µM): 10.7% and 9.53% and 5.15%
viability, T/C (compound 10 µM): 10.5% and 9.86% and 3.76%
IC50: 102 nM and 88.6 nM and 527 nM

CC1COCCN1c1cc(C2(O)CC3CCC(C2)O3)c2cnn(-c3ccn[nH]3)c2n1 (stereo unspecified)
viability, T/C (compound 0.0316 µM): 67.2% and 61.1% and 90.8%
viability, T/C (compound 0.1 µM): 45.3% and 34.4% and 78.8%
viability, T/C (compound 0.316 µM): 17.6% and 17% and 52.5%
viability, T/C (compound 1 µM): 10.2% and 7.95% and 6.96%
viability, T/C (compound 3.16 µM): 9.58% and 7.43% and 2.96%
viability, T/C (compound 10 µM): 4.72% and 5.39% and 2.25%
IC50: 77.6 nM and 51 nM and 324 nM

CC1COCCN1c1cc(C2(S(C)(=N)=O)CC2)nc(-c2ccnc3[nH]ccc23)n1 (stereo unspecified)
viability, T/C (compound 0.0316 µM): 106% and 91.7% and 104%
viability, T/C (compound 0.1 µM): 99.9% and 108% and 91.8%
viability, T/C (compound 0.316 µM): 94.5% and 93.5% and 97.2%
viability, T/C (compound 1 µM): 70.8% and 83.8% and 71.7%
viability, T/C (compound 3.16 µM): 41.6% and 77.8% and 42.5%
viability, T/C (compound 10 µM): 16.7% and 45.8% and 16.9%
IC50: 2270 nM and 8700 nM and 2350 nM

CCCS(=O)(=O)Nc1ccc(F)c(C(=O)c2c[nH]c3ncc(-c4ccc(Cl)cc4)cc23)c1F
viability, T/C (compound 0.0316 µM): 94.3% and 101% and 99.8%
viability, T/C (compound 0.1 µM): 96.1% and 110% and 85.9%
viability, T/C (compound 0.316 µM): 100% and 104% and 94.3%
viability, T/C (compound 1 µM): 92.9% and 106% and 89.7%
viability, T/C (compound 3.16 µM): 97.2% and 113% and 91%
viability, T/C (compound 10 µM): 79.2% and 84.4% and 48.5%
IC50: > 10000 nM and 9610 nM

CC[C@@]1(O)C(=O)OCc2c1cc1n(c2=O)Cc2cc3c(CN(C)C)c(O)ccc3nc2-1
viability, T/C (compound 0.000316 µM): 98.5% and 98.7% and 92.7%
viability, T/C (compound 0.001 µM): 96.4% and 98.7% and 99.2%
viability, T/C (compound 0.00316 µM): 99.3% and 95.3% and 99.2%
viability, T/C (compound 0.01 µM): 64% and 86.4% and 63.1%
viability, T/C (compound 0.0316 µM): 18% and 9.22% and 16.4%
viability, T/C (compound 0.1 µM): 16% and 6.06% and 17.5%
IC50: 14.1 nM and 17.2 nM and 13.9 nM

CCc1c2c(nc3ccc(O)cc13)-c1cc3c(c(=O)n1C2)COC(=O)[C@]3(O)CC
viability, T/C (compound 0.00316 µM): 14.7% and 8.09% and 15.9%
viability, T/C (compound 0.01 µM): 15.4% and 8.23% and 16.2%
viability, T/C (compound 0.0316 µM): 15.1% and 8.92% and 18.4%
viability, T/C (compound 0.1 µM): 18% and 6.71% and 16.7%
viability, T/C (compound 0.316 µM): 14.7% and 5.07% and 16%
viability, T/C (compound 1 µM): 4.2% and 2.5% and 5.57%
IC50: < 3.16 nM

CCc1cc2c(N3CCc4c(cc(Cn5ccnc5)cc4-c4cn(C)nc4C(F)(F)F)C3=O)cc(C)nc2c(OC)n1
viability, T/C (compound 0.0316 µM): 97.3% and 95.1% and 89.2%
viability, T/C (compound 0.1 µM): 77.4% and 91.2% and 89.8%
viability, T/C (compound 0.316 µM): 63.9% and 85.3% and 90%
viability, T/C (compound 1 µM): 48% and 81.4% and 78.2%
viability, T/C (compound 3.16 µM): 42.7% and 76.8% and 69.8%
viability, T/C (compound 10 µM): 38.6% and 45.6% and 43.8%
IC50: 977 nM and 8650 nM and 7620 nM

CCc1cc2c(N3CCc4c(cc(Cn5ccnc5)cc4-c4cn(C)nc4C(F)(F)F)C3=O)ccnc2c(OC)n1
viability, T/C (compound 0.0316 µM): 91% and 106% and 101%
viability, T/C (compound 0.1 µM): 85.1% and 102% and 98.5%
viability, T/C (compound 0.316 µM): 75.5% and 95.9% and 87.7%
viability, T/C (compound 1 µM): 61.2% and 86.6% and 91.9%
viability, T/C (compound 3.16 µM): 55.3% and 83.3% and 73.6%
viability, T/C (compound 10 µM): 32.2% and 55.7% and 54.7%
IC50: 3300 nM and > 10000 nM
